Assay results reported in US20120276047A1, “FUSED TRICYCLIC COMPOUNDS AND DERIVATIVES THEREOF USEFUL FOR THE TREATMENT OF VIRAL DISEASES” (priority 2009, published 2012).
pEC50: −log10 of the molar value.

Tested on: HCV replicon cells
Experiment: Cell-based HCV replicon assay
Settings: Hepatitis C virus, 72 h; replicon RNA level by real time PCR (Taqman), cells harvested on day 3; EC50 = concentration to achieve ΔCT=1 over baseline
Experimental: To measure cell-based anti-HCV activity of selected compounds of the present invention, replicon cells were seeded at 5000 cells/well in 96-well collagen I-coated Nunc plates in the presence of the test compound. Various concentrations of test compound, typically in 10 serial 2-fold dilutions, were added to the assay mixture, with the starting concentration ranging from 250 μM to 1 μM. The final concentration of DMSO was 0.5%, fetal bovine serum was 5%, in the assay media. Cells were harvested on day 3 by the addition of 1× cell lysis buffer (Ambion cat #8721). The replicon RNA level was measured using real time PCR (Taqman assay). The amplicon was located in 5B. The PCR primers were: 5B.2F, ATGGACAGGCGCCCTGA; 5B.2R, […]; the probe sequence was FAM-labeled CACGCCATGCGCTGCGG. GAPDH RNA was used as endogenous control and was amplified in the same reaction as NS5B (multiplex PCR) using primers and VIC-labeled probe recommended by the manufacturer (PE Applied Biosystem). […] Alternatively, to quantitate the absolute amount of replicon RNA, a standard curve was established by including serially diluted T7 transcripts of replicon RNA in the Taqman assay. […]

SMILES: COC(=O)N[C@@H](C(=O)N1CCC[C@H]1c1nc2ccc3cc(-c4ccc5c(ccc6nc([C@@H]7CCCN7C(=O)[C@H](NC(=O)OC)C(C)C)[nH]c65)n4)ccc3c2[nH]1)C(C)C [Compound 1]
- pEC50: > 9.00
